Assay results reported in ChEMBL document CHEMBL5543153, “Discovery of a Potent Dual Son of Sevenless 1 (SOS1) and Epidermal Growth Factor Receptor (EGFR) Inhibitor for the Treatment of Prostate Cancer” (J Med Chem, 2024).
Activity calls are given as the source filed them. The rule behind the calls is not given here.

Experiments:
PC-3 [1] = assay: Antiproliferative activity against human PC-3 cells transfected with EGFR shRNA assessed as inhibition of cell growth incubated for 72 hrs by MTT assay; type: functional, cell-based; settings: PC-3, 72 h
[2] = Toxicity in BALB/c mouse xenografted with human PC-3 cells assessed as change in creatinine level at 20 mg/kg,ip administrated once every 4 days for 24 days by automatic biochemical analyzer; type: organism-based; settings: in vivo, 576 h, time 24 day
PC-3 [3] = assay: Antiproliferative activity against human PC-3 cells assessed as reduction in EdU-positive cells at 0.5 to 12.5 uM incubated for 48 hrs by EdU incorporation assay; type: functional, cell-based; settings: dose 0.5-12.5 µM
PC-3 [4] = assay: Induction of apoptosis in human PC-3 cells assessed as early apoptotic cells at 2.5 uM by Annexin V-FITC staining based flow cytometry (reference value: 2.64%); type: functional
SK-LU-1 = assay: Antiproliferative activity against human SK-LU-1 cells harboring KRAS G12D mutant assessed as inhibition of cell growth incubated for 72 hrs by MTT assay; type: functional, cell-based; settings: SK-LU-1, 72 h
[5] = Toxicity in BALB/c mouse xenografted with human PC-3 cells assessed as heart pathological change at 20 mg/kg,ip administrated once every 4 days for 24 days by hematoxylin and eosin staining based analysis; type: organism-based; settings: in vivo, 576 h, time 24 day
[6] = Toxicity in BALB/c mouse xenografted with human PC-3 cells assessed as spleen pathological change at 5 mg/kg,ip administrated once every 4 days for 24 days by hematoxylin and eosin staining based analysis; type: organism-based; settings: in vivo, 576 h, time 24 day
HUVEC [7] = assay: Inhibition of cell migration in HUVEC cells assessed as reduction in invasion index at 0.5 to 12.5 uM measured after 48 hrs by crystal violet staining based transwell invasion assay; type: functional; settings: Homo sapiens, dose 0.5-12.5 µM
PC-3 [8] = assay: Induction of cell cycle arrest in human PC-3 cells assessed as accumulation of cells at G1 phase at 12.5 uM by PI staining based flow cytometry (reference value: 75.66%); type: functional
[9] = target: T1, Son of sevenless homolog 1 (Homo sapiens) (UniProt Q07889); assay: Inhibition of SOS1 in human PC-3 cells assessed as downregulation of AKT phosphorylation at 12.5 uM incubated for 15 mins by Western blotting analysis; type: cell-based
T1 sequence (whole entry): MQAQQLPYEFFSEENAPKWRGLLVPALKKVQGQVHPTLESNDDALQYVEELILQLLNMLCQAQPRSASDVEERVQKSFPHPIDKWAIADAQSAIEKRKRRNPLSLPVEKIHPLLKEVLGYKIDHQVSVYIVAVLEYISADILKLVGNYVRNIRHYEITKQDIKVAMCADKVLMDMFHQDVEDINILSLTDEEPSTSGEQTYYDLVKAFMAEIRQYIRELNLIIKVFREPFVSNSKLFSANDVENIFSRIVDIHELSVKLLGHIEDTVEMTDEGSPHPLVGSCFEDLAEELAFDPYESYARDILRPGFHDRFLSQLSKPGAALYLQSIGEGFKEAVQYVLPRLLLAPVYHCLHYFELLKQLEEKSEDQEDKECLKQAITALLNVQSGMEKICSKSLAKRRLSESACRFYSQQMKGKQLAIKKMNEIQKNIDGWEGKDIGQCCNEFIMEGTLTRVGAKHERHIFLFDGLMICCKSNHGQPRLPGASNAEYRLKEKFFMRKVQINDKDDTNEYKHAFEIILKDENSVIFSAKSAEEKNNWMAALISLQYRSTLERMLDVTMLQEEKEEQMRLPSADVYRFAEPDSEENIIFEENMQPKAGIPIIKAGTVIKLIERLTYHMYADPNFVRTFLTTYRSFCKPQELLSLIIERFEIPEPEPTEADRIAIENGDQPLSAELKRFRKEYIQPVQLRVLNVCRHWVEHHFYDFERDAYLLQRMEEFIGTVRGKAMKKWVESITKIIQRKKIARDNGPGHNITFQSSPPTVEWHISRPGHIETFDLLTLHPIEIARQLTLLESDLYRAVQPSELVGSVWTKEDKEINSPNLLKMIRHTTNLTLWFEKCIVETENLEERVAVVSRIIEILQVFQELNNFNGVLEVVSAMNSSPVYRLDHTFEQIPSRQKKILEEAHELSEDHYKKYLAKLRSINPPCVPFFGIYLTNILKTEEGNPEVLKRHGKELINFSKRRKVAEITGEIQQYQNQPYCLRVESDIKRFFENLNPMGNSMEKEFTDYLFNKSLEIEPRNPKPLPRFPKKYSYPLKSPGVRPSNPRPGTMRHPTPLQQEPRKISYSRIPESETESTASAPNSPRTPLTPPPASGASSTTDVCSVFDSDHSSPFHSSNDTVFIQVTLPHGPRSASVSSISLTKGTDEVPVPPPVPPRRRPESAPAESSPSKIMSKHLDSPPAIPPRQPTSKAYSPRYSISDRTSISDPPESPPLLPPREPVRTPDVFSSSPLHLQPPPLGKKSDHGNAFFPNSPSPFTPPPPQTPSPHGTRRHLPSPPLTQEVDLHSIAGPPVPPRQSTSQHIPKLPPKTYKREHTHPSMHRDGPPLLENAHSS

PC-3 [10] = assay: Induction of cell cycle arrest in human PC-3 cells assessed as accumulation of cells at G2 phase at 0.5 uM by PI staining based flow cytometry (reference value: 7.75%); type: functional
PC-3 [11] = assay: Antitumor activity against human PC-3 cells xenografted in BALB/c mouse assessed as reduction in tumor volume at 5 mg/kg,ip administrated once every 4 days for 24 days; type: functional, organism-based; settings: time 24.0 day
[12] = Toxicity in BALB/c mouse xenografted with human PC-3 cells assessed as change in creatinine level at 5 mg/kg,ip administrated once every 4 days for 24 days by automatic biochemical analyzer; type: organism-based; settings: in vivo, 576 h, time 24 day
PC-3 [13] = assay: Induction of apoptosis in human PC-3 cells assessed as late apoptotic cells at 12.5 uM by Annexin V-FITC staining based flow cytometry (reference value: 1.93%); type: functional
[14] = target: T1, Son of sevenless homolog 1 (Homo sapiens); assay: Inhibition of SOS1 in human PC-3 cells assessed as downregulation of RAS-GTP expression at 12.5 uM incubated for 15 mins by Western blotting analysis; type: cell-based
[15] = Toxicity in BALB/c mouse xenografted with human PC-3 cells assessed as lung pathological change at 5 mg/kg,ip administrated once every 4 days for 24 days by hematoxylin and eosin staining based analysis; type: organism-based; settings: in vivo, 576 h, time 24 day
PC-3 [16] = assay: Induction of apoptosis in human PC-3 cells assessed as upregulation of cleaved caspase-3 expression by Western blotting analysis; type: functional, cell-based
A549 = assay: Antiproliferative activity against human A549 cells assessed as inhibition of cell growth incubated for 72 hrs by MTT assay; type: functional, cell-based
PC-3 [17] = assay: Induction of apoptosis in human PC-3 cells assessed as late apoptotic cells at 2.5 uM by Annexin V-FITC staining based flow cytometry (reference value: 1.93%); type: functional
HUVEC [18] = assay: Antiangiogenic activity in HUVEC cells assessed as reduction of mean mesh at 0.5 to 12.5 uM incubated for 8 hrs by matrigel based microscopic analysis; type: functional, cell-based; settings: Homo sapiens, dose 0.5-12.5 µM
PC-3 [19] = assay: cells; type: functional, cell-based; settings: Homo sapiens, PC-3, 72 h
Description: Antiproliferative activity against human PC-3 cells assessed as inhibition of cell growth incubated for 72 hrs by MTT assay

[20] = target: T1, Son of sevenless homolog 1 (Homo sapiens); assay: Inhibition of human recombinant SOS1 at 10 uM relative to control

Compound: COc1cc2ncnc(N[C@H](C)c3cccc(F)c3)c2cc1OC1CCOCC1
- IC50 (PC-3 [1]): 5480 nM
- Activity [2]: Non-Toxic
- Activity (PC-3 [3]): Active
- Activity (PC-3 [4]): 17%
- IC50 (SK-LU-1): 550 nM
- Activity [5]: Toxic
- Activity [6]: Toxic
- inhibition (HUVEC [7]): Active
- Activity (PC-3 [8]): 87.38%
- inhibition [9]: Active
- Activity (PC-3 [10]): 9.71%
- Activity (PC-3 [11]): Active
- Activity [12]: Non-Toxic
- Activity (PC-3 [13]): 4.07%
- inhibition [14]: Active
- Activity [15]: Toxic
- Activity (PC-3 [16]): Dose-Dependent Effect
- Activity (A549): Active
- Activity (PC-3 [17]): 3.36%
- Activity (HUVEC [18]): Active
- IC50 (PC-3 [19]): 450 nM
- inhibition [20]: 97%
